“Also recorded” adds a separate entry of the source. Where no end group is shown, it is not given here.
Experiments:
eosinophils = experiment: Eosinophils in lung parenchyma and BALF after in vivo treatment (flow cytometry); set-up: species or system mouse
Description: (§1) Mice and in vivo ILC activation. C57Bl/6J mice were purchased from the Jackson Laboratory. Nmur1-LacZ reporter mice with a LacZ cassette knocked into the Nmur1 locus were rederived from Nmur1^tm1.1(KOMP)Vleg sperm obtained from the trans-NIH Knock-Out Mouse Project (KOMP) Repository. Mice were housed under specific-pathogen-free conditions. For experiments, mice were matched for sex and age, and most mice were 6-10 weeks old. […] The total administered volume was 20 μl for all conditions. Mice were randomly assigned to treatment groups after matching for sex and age. […] Mice were treated intranasally with 10 μg HDM on day 0, 7, 8, and 9, prior to sacrifice on day 10. All experiments were conducted in accordance with animal protocols approved by the Harvard Medical Area Standing Committee on Animals or BWH IACUC.
Flow cytometry. […] Cells were stained on ice with antibodies for surface molecules and the live/dead marker 7AAD and analyzed on a LSRFortessa (BD Biosciences). […]
Lung analysis. […] BALF was centrifuged, and the supernatant was used for analyzing cytokine levels and the cell pellet was resuspended, counted, and used for flow cytometry. […] Where indicated, cells were diluted in 10% Trypan Blue and viable cells counted using a hemocytometer. […]

[1] = tested on: IL-5 and IL-13 in lung and BALF; experiment: In vivo ILC activation (intranasal), lung analysis: Il5, Il13, Il17rb mRNA in lung mononuclear cells (qPCR), IL-5/IL-13 in BALF (LegendPlex); set-up: species or system mouse
Description: as §1
Lung analysis. Mice were sacrificed and perfused with cold PBS. Where indicated, after perfusion, broncho alveolar lavage (BAL) was obtained by injecting 1.5 ml cold PBS into the lungs via a secured tracheal cannula. BALF was centrifuged, and the supernatant was used for analyzing cytokine levels and the cell pellet was resuspended, counted, and used for flow cytometry. Following BAL, lung lobes were dissected. The post-caval lobe was fixed in buffered formalin for histological analysis. Single cell suspensions of the remaining lung parenchymal tissue were prepared with the GentleMACS lung dissociation kit (Miltenyi Biotec) according to the manufacturer's instructions. Where indicated, cells were diluted in 10% Trypan Blue and viable cells counted using a hemocytometer.
Quantitative real-time PCR. RNA was isolated using RNeasy Plus Mini Kit (Qiagen) and reverse transcribed to cDNA with iScript cDNA Synthesis Kit (Bio-Rad). Gene expression was analyzed by quantitative real-time PCR on a ViiA7 System (Thermo Fisher Scientific) using TaqMan Fast Advanced Master Mix (Thermo Fisher Scientific) with the following primer/probe sets: IL-5 (Mm00439646_m1), IL-13 (Mm00434204_m1), IL-17RB (Mm00444709_m1), Nmur1 (Mm04207994 m1), Nmur2 (Mm00600704_m1), and β-Actin (Applied Biosystems). Expression values were calculated relative to β-Actin detected in the same sample by duplex qPCR.
Cytokine quantification. Cytokine concentrations in BAL fluid, lung and supernatant of in vitro ILC cultures were analyzed by the LegendPlex Mouse Th Cytokine Panel (13-plex) (BioLegend) according to the manufacturer's instructions and analyzed on a FACS Calibur (BD Biosciences).
Mice and in vivo ILC activation. C57Bl/6J mice were purchased from the Jackson Laboratory. Nmur1-LacZ reporter mice with a LacZ cassette knocked into the Nmur1 locus were rederived from Nmur1^tm1.1(KOMP)Vleg sperm obtained from the trans-NIH Knock-Out Mouse Project (KOMP) Repository. NMU-deficient mice (NMU-KO) were rederived from B6.129S2-Nmu<tm1Mko> embryos from the RIKEN BioResource Center. For experiments with Nmur1-LacZ (Nmur1-KO) and NMU-KO mice, littermates that were either homozygous or heterozygous for the wild type allele were used as controls. Mice were housed under specific-pathogen-free conditions. For experiments, mice were matched for sex and age, and most mice were 6-10 weeks old. […] The total administered volume was 20 μl for all conditions. Mice were randomly assigned to treatment groups after matching for sex and age. […]
Lung analysis. […] BALF was centrifuged, and the supernatant was used for analyzing cytokine levels and the cell pellet was resuspended, counted, and used for flow cytometry. […]

Substance: Neuromedin U (FRVDEEFQSPFASQSRGYFLFRPRN-NH2; listed as Homo sapiens) [NMU, neuropeptide ligand of Nmur1 (US Biological)]
- eosinophils in BALF (eosinophils; intranasal daily for 3 days (500 ng IL-25, 20 μg NMU)): only a mild increase; also recorded: small increase
- eosinophils in lung parenchyma (eosinophils; intranasal daily for 3 days (500 ng IL-25, 20 μg NMU; FIG. 11: 250 ng IL-33, 10 μg NMU)): did not increase
- IL-33-induced lung inflammation with NMU ([1]; 250 ng IL-33 and 10 μg NMU (FIG. 11)): little impact; also recorded: does not significantly amplify
- allergic lung inflammation induced by the substance alone ([1]; NMU 20 μg intranasally for 3 consecutive days, no alarmin): little effect; also recorded: minimal
- IL-5 protein in BALF ([1]; NMU alone 20 μg intranasally for 3 days, LegendPlex): only trace quantities
- IL-25-induced allergic airway inflammation with NMU ([1]; NMU co-administered with IL-25): dramatically enhanced; also recorded: amplifies
- Il5 and Il13 mRNA expression in lung (lung mononuclear cells) ([1]; intranasal daily for 3 days (500 ng IL-25, 20 μg NMU), qPCR): did not cause a significant increase

— patent US12161694B2, “Methods and compositions for regulating innate lymphoid cell inflammatory responses” (The Broad Institute, Inc., priority 2017, dated 2024)
